Here are results for 16 compounds from PubChem BioAssay (NCI).

Holding throughout (assay): growth of human tumour cells (NCI), 48 h
Test [1] concerns 786-0 renal.
For test [2], the system named is A549 NSCLC.
Test [3] has as its system BT-549 breast.
The test system of test [4] is CCRF-CEM leukemia.
Test [5] concerns COLO 205 colon.
The test system of test [6] is DU-145 prostate.
Test [7] deals with HL-60(TB) leukemia.
In test [8] the test system is HOP-62 NSCLC.
For test [9], the system named is HS 578T breast.
For test [10], the system named is IGROV1 ovarian.
The subject of test [11] is K-562 leukemia.
Test [12] has as its system OVCAR-4 ovarian.
Test [13] has as its system RXF 393 renal.
Test [14] deals with SF-295 CNS.
The test system of test [15] is SK-MEL-28 melanoma.
Test [16] concerns SN12C renal.
The subject of test [17] is U251 CNS.
The test system of test [18] is UACC-257 melanoma.
Test [19] deals with A498 renal.

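Five concentrations, 48 hours, 96-well plates. TGI is the concentration that stops growth completely.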

Turning to `CCOC(=O)C(NCc1ccc2c(c1)OCO2)(NC(=O)c1ccccc1)C(F)(F)F` (stereo not given), the TGI is greater than 100 µM in test [1]; greater than 100 µM in test [2]; greater than 100 µM in test [3]; 67.8 µM in [4]; greater than 100 µM in test [5]; greater than 100 µM in test [6]. The TGI in test [7] was 82 µM; in test [8], greater than 100 µM; in test [9], greater than 100 µM; in [10] it was greater than 100 µM; in test [11], greater than 100 µM; in test [12], greater than 100 µM. Besides, the TGI in test [13], in test [14], in [15], in test [16], in [17] and in [18] was greater than 100 µM throughout.

Regarding `CN(C)c1nc2n(CCO)c(-c3ccccc3)c(-c3ccccc3)nc-2c(=O)n1`, the TGI in [1], in test [19], in test [2], in [3], in test [4] and in [5] was greater than 100 µM in each case. The TGI in test [6], in test [8], in test [9], in [10], in test [11] and in test [12] was greater than 100 µM each time. Further, the TGI in test [13], in test [14], in test [15], in [16], in test [17] and in test [18] was greater than 100 µM each time.

On to `COc1ccc(OC)c(C23CCCC(C2)N(C)CC3)c1` (stereo not given), for which the TGI in [1] is 85.3 µM; in [19] it was 89.9 µM; in [2], greater than 100 µM; in [3], greater than 100 µM; in test [6], 91.9 µM; in test [9], greater than 100 µM. For the same compound, the TGI in [11] was 43 µM; in test [12], 62.1 µM; in test [13] it was 61.2 µM; in [14], 66.2 µM; in test [16], greater than 100 µM; in test [17], 27.6 µM. In addition, the TGI in [18] is greater than 100 µM.

As to `Cc1cnc(-c2c[nH]c3ccccc23)nc1-c1c[nH]c2ccccc12`, the TGI in test [1] is 10.7 µM; in test [19], 7.03 µM; in test [2] it was 20.2 µM; in [3] it was 67.7 µM; in test [4], 4.92 µM; in test [5] it was 16.8 µM. The TGI in test [6] was 20.1 µM; in [7], 25.1 µM; in test [8] it was 24.8 µM; in test [9] it was greater than 100 µM; in [10], 14.8 µM; in test [11], 26 µM. Also, the TGI in test [12] is 24.3 µM; in [14] it was 15.2 µM; in [16], 8.53 µM; in [17], 19.7 µM; in test [18] it was 20.5 µM.

For `COc1cc(C=C2N=C(c3ccccc3)N(n3c(-c4ccccc4)nc4ccccc4c3=O)C2=O)cc(OC)c1OC`, the TGI in test [1] was 45.9 µM; in [2] it was greater than 100 µM; in test [3] it was 32.5 µM; in [4], greater than 100 µM; in test [5] it was 52.8 µM; in [6], 79.9 µM. The TGI in [7] was greater than 100 µM; in test [8] it was 29.9 µM; in test [9], 51.6 µM; in test [10], 94.4 µM; in test [11] it was greater than 100 µM; in [12], 96.5 µM. Further, the TGI in test [13] is 39.2 µM; in test [14], 41 µM; in test [15], 35.5 µM; in test [16] it was 36.2 µM; in test [18], 43 µM.

`c1ccc(C2SCc3nc4cc5ccccc5cc4n32)cc1` (stereo not given): the TGI in [1], in test [2], in test [3], in test [4], in test [5] and in [6] was greater than 100 µM in each case. Also, the TGI in [8], in [9], in [10], in test [11], in [12] and in [13] was greater than 100 µM each time. The TGI in [14], in test [15], in test [16], in test [17] and in test [18] was greater than 100 µM throughout.

Turning to `O=C1Nc2ccccc2S/C1=C\c1ccccc1C(F)(F)F`, the TGI in test [1], in test [2], in test [3], in test [4], in [5] and in [6] was greater than 100 µM throughout. In addition, the TGI in test [7] is greater than 100 µM; in test [8] it was greater than 100 µM; in [9] it was greater than 100 µM; in [10] it was greater than 100 µM; in [12] it was 49.4 µM; in test [13], greater than 100 µM. Besides, the TGI in test [14], in [15], in [16], in test [17] and in test [18] was greater than 100 µM throughout.

For `O=C(O)c1ccccc1CC1Cc2ccc3c(c2C1=O)CCC3` (stereo not given), the TGI in test [1], in test [2], in test [3], in [4], in test [5] and in test [6] was greater than 100 µM each time. The TGI in test [7], in [8], in test [9], in test [10], in test [11] and in test [12] was greater than 100 µM throughout. Besides, the TGI in [13], in test [14], in test [15], in test [16], in test [17] and in [18] was greater than 100 µM each time.

With `O=C(CCCN1CCC2(CC1)NC(=O)c1ccccc1O2)c1ccc(F)cc1`, the TGI in test [1], in test [2], in test [3], in test [4], in test [5] and in test [6] was greater than 100 µM each time. Besides, the TGI in [7], in test [8], in test [9], in [10], in test [11] and in test [12] was greater than 100 µM throughout. The TGI in [13], in test [14], in [15], in test [16], in [17] and in test [18] was greater than 100 µM each time.

For `CC(=O)Nc1ccc(CNc2cc(=O)n(C)c(=O)[nH]2)cc1`, the TGI in [1], in [2], in test [3], in test [4], in [5] and in test [6] was greater than 100 µM each time. Besides, the TGI in test [7], in [8], in [9], in test [10], in [11] and in test [12] was greater than 100 µM throughout. Moreover, the TGI in test [13], in test [14], in [15], in [16], in test [17] and in [18] was greater than 100 µM in each case.

On to `Cc1nn(C(=O)c2ccc(Cl)cc2)c2c1C(c1cccc([N+](=O)[O-])c1)SC(N)=N2` (stereo not given), for which the TGI in test [1], in test [2], in [3], in test [4], in test [5] and in [6] was greater than 10 µM each time. In addition, the TGI in test [7], in test [8], in [9], in test [10], in test [11] and in test [12] was greater than 10 µM each time. Also, the TGI in test [13], in test [14], in test [15], in test [16], in test [17] and in test [18] was greater than 10 µM throughout.

Turning to `CCC(=O)N1NC(=O)C(CC)(CC)C1=O`, the TGI in test [1], in test [2], in test [3], in test [4], in [5] and in test [6] was greater than 100 µM each time. The TGI in test [7], in test [8], in test [9], in test [10], in [11] and in test [12] was greater than 100 µM throughout. For the same compound, the TGI in [13], in [14], in test [15], in test [16], in test [17] and in test [18] was greater than 100 µM each time.

In the case of `COc1ccc(N=C2C(=Nc3ccc(OC)cc3)N(S(=O)(=O)c3ccccc3)C(=S)N2c2ccccc2)cc1`, the TGI in [1], in [2], in [3], in test [5], in [6] and in [8] was greater than 100 µM in each case. Besides, the TGI in test [9], in test [10], in test [11], in test [13], in test [14] and in test [15] was greater than 100 µM throughout. The TGI in test [16], in test [17] and in [18] was greater than 100 µM throughout.

For the compound `CCn1c(-c2ccc(F)cc2)nc2c1C(=O)c1ccccc1C2=O`, the TGI in test [1], in [2], in [3], in test [4], in test [5] and in [6] was greater than 100 µM each time. Moreover, the TGI in test [7], in test [8], in test [9], in test [10], in [11] and in test [12] was greater than 100 µM each time. Further, the TGI in [13], in [14], in [15], in [16], in test [17] and in test [18] was greater than 100 µM in each case.

`O=C(NNc1ccnc2cc(Cl)ccc12)/C(=C\c1ccccc1Cl)NC(=O)c1ccccc1`: the TGI was greater than 100 µM in test [1]; greater than 100 µM in [2]; 87.8 µM in [3]; greater than 100 µM in test [4]; 81.8 µM in test [5]; greater than 100 µM in test [6]. Besides, the TGI is 67.8 µM in test [7]; 48.6 µM in test [8]; greater than 100 µM in [9]; greater than 100 µM in test [10]; greater than 100 µM in test [11]; greater than 100 µM in test [12]. The TGI is greater than 100 µM in test [13]; 96.1 µM in test [14]; greater than 100 µM in test [15]; greater than 100 µM in test [16]; 34 µM in test [17]; greater than 100 µM in test [18].

As for `N#Cc1nc(COCc2ccccc2)oc1N`, the TGI in test [1], in [2], in test [3], in test [4], in test [5] and in test [6] was greater than 100 µM in each case. Further, the TGI in [8], in test [9], in [10], in [11], in test [12] and in test [13] was greater than 100 µM each time. The TGI in test [14], in test [15], in [16], in [17] and in test [18] was greater than 100 µM in each case.
